Experimental data taken from patent publication US20110152313A1 (MACQUARIE UNIVERSITY, priority 2008, published 2011).

What was measured:
Experiment in all cases: kinase binding screen (kinase-tagged T7 phage, qPCR), % Ctrl
DYRK2 = biological target: T1, DYRK2 (Homo sapiens, UniProt Q92630)
T1 sequence (Q92630 1-601): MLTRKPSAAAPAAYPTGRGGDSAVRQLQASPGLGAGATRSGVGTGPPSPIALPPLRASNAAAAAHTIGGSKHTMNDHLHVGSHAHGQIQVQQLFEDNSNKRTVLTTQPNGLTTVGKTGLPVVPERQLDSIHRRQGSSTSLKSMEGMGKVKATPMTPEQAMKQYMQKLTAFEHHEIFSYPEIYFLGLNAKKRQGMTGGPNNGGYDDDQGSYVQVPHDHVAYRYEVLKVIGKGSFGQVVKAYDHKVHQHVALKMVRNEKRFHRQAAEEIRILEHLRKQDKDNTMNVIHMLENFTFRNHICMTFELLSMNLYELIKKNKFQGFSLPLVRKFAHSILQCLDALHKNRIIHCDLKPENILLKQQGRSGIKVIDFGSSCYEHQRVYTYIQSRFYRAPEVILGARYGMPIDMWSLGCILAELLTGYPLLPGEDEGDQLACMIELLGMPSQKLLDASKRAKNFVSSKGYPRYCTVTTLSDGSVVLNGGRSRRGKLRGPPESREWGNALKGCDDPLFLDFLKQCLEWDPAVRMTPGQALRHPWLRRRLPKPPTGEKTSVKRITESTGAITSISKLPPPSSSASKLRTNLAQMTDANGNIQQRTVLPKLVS
Protocol: (§1) Percentage kinase inhibition at a set concentration was performed by methods well known in the prior art (Fabian, M. A. et al. Nat. Biotechnol. 2005, 23, 329; Karaman et al. (2008) Nat. Biotechnol. […], 26, 127). Briefly, kinase-tagged T7 phage strains were grown in parallel in 24-well blocks in an E. coli host derived from the BL21 strain. E. coli were grown to log-phase and infected with T7 phage from a frozen stock (multiplicity of infection=0.4) and incubated with shaking at 32° C. until lysis (90-150 minutes). The lysates were centrifuged (6,000×g) and filtered (0.2 μm) to remove cell debris. […] The liganded beads were blocked with excess biotin and washed with blocking buffer (SeaBlock (Pierce); 1% BSA, 0.05% Tween 20, 1 mM DTT) to remove unbound ligand and to reduce non-specific phage binding. […] Test compounds were prepared as 40× stocks in 100% DMSO and directly diluted into the assay. All reactions were performed in polypropylene 384-well plates in a final volume of 0.04 mL. […] The kinase concentration in the eluates was measured by qPCR.

[1] = biological target: RPS6KA1(Kin.Dom.2-C-terminal) (Homo sapiens, UniProt Q15418)
Protocol: as §1

CAMK2D = CAMK2D (Homo sapiens, UniProt Q13557)
Protocol: as §1

GRK1 = biological target: T2, GRK1 (Homo sapiens, UniProt Q15835)
T2 sequence (Q15835 1-563): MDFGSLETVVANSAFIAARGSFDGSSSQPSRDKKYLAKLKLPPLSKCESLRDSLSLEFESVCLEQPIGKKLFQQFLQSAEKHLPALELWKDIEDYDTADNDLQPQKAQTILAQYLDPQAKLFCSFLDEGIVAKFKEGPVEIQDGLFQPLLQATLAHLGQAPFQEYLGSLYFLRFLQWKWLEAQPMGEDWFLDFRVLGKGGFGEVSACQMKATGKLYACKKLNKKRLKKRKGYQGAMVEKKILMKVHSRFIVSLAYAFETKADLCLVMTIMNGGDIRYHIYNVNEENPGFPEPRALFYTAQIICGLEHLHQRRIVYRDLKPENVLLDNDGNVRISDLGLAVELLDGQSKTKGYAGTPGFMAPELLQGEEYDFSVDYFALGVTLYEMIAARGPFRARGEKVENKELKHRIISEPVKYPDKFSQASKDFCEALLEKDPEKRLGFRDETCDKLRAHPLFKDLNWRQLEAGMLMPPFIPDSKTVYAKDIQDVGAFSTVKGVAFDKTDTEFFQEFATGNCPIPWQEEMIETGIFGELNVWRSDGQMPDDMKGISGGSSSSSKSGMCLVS
Protocol: as §1

Sequence of RPS6KA1(Kin.Dom.2-C-terminal) (Q15418 418-675 limits assumed, species assumed): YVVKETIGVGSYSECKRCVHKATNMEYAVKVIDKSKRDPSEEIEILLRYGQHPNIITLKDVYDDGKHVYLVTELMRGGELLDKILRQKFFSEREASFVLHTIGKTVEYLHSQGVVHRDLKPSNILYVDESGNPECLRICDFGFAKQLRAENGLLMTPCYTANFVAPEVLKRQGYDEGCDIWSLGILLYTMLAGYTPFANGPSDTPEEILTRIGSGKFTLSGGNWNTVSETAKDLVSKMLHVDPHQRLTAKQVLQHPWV
Sequence of CAMK2D (Q13557 whole entry): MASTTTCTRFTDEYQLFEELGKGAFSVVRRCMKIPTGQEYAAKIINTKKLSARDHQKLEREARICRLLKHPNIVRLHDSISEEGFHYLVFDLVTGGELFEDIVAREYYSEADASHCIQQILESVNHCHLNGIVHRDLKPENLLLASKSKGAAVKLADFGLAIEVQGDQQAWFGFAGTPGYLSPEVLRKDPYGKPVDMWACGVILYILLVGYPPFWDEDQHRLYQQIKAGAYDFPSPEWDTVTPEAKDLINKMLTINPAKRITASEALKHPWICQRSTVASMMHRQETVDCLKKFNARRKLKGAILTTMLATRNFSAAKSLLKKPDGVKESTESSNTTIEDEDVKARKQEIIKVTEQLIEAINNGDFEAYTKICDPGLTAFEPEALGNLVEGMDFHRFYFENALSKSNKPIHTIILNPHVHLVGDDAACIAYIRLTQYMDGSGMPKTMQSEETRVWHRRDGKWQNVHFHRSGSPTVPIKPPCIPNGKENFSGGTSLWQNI

remaining activity at 10 µM (DYRK2; 10 μM)	remaining activity at 10 µM ([1]; 10 μM)	remaining activity at 10 µM (CAMK2D; 10 μM)	remaining activity at 10 µM (GRK1; 10 μM)	Compound	remaining activity at 1 µM (DYRK2)	remaining activity at 1 µM [1]	remaining activity at 1 µM (CAMK2D)	remaining activity at 1 µM (GRK1)
				Nc1nc2c(-c3cnc4ccccc4c3)nccc2[nH]1 [drawing 36, 4-(quinolin-3-yl)-1H-imidazo[4,5-c]pyridin-2-amine]	56%	92%	100%	86%
4.4%	22%	82%	85%	Nc1nc2c(-c3cc(Br)c(Br)[nH]3)nccc2[nH]1 [Ageladine A, ageladine A, reference compound]	35%	20%	100%	80%
				Nc1nc2c(-c3ccccn3)nccc2[nH]1 [drawing 35, 4-(pyrid-2-yl)-1H-imidazo[4,5-c]pyridin-2-amine]	41%	33%	41%	49%
